In PMC8318231, “Rate-of-Kill (RoK) assays to triage large compound sets for Chagas disease drug discovery: Application to GSK Chagas Box” (PLoS Neglected Tropical Diseases, 2021):
Several values for one entry are separate records, joined by “and”; a condition that tells them apart may be missing. Equal entries are not always repeated.

Tests used:
[1] = test system: T. cruzi Tulahuen trypomastigotes; assay: T. cruzi trypomastigote assay (Cell Titer-Glo viability, ATP luminescence); format: cell-based, Trypanosoma cruzi; conditions: for Trypomastigotes pIC50 48 hours: 48 hours incubation; for Trypomastigotes pIC50 48 hours / Trypomastigotes pIC50 72 hours: pIC50 = -log10 IC50 in molar units; for Trypomastigotes pIC50 72 hours: 72 hours incubation; for 72 pIC50: 72 h
Procedure, shortened: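 Compounds were tested in dose response or once at a final 5 μM against 5 × 10^4 trypomastigotes per well (DMEM, 2% FBS), collected on days 5–8 from LLC-MK2 infected cultures. ATP luminescence via CellTiter-Glo reports live parasites; DMSO defines 0% and cell-free wells 100% effect.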

[2] = test system: T. cruzi intracellular amastigotes in H9c2 cells; assay: Rate-of-Kill (RoK) high-content imaging assay, amastigotes per cell (AM/CELL) and curve descriptors; format: cell-based, Trypanosoma cruzi; conditions: maximum percentage of parasite burden reduction reached by any concentration, 24 hours
Experimental: (§1) For this high-content intracellular imaging assay, H9c2 cells were seeded in 225 cm^2 T- FLASK in DMEM with 10% FBS for 4 h to allow attachment. T. cruzi trypomastigotes, collected at days 5 to 8 after infection from LLC-MK2 parasite infected cultures, were allowed to swim out for 4 h at 37°C from a centrifuged pellet (1,600 x g / 10 min). Trypomastigotes were then collected and counted in a CASY Cell Counter using the 60 μm capillary. Trypomastigotes, in supplemented DMEM, were added to H9c2 cultures in a multiplicity of infection (MOI) of 8 and incubated for 18 h. Cells were washed once with PBS before incubation of the infected H9c2 monolayer with trypsin (Life-Technologies) to detach cells from the flask. Cells were counted in a CASY Cell Counter, using the 150 μm capillary, and their density set at 5 x 10^4 cells/mL in supplemented DMEM. Infected H9c2 were dispensed into 384-well plates at 50 μL per well using a Multidrop Combi dispenser. Control wells used to determine a 100% parasitic growth (full 6th column of each plate) were left untreated, whereas not infected cells were added in the control wells used as 0% parasite growth (or 100% parasite growth inhibition; full 18th column of each plate). The four plates corresponding to each RoK assay were predispensed for the same mother plate. […] Cultures were then fixed and stained with 50 μL per well of a PBS solution containing 4% formaldehyde and 2 μM DRAQ5 DNA dye (BioStatus, UK). Then plates were read in a PerkinElmer Opera Phenix using a 20x objective, 3 fields per well. DRAQ5 signal was detected using 640 nm excitation laser and a 690/50 nm emission detection filter. Automated image analysis was performed with a script developed on Acapella High Content Imaging and Analysis Software (PerkinElmer). Two outputs were provided for each sample well: (1) number of host cells nuclei to determine drug-related cytotoxicity (aka H9c2) and (2) number of amastigotes per cell as infection level measurement (aka AM/CELL). Each output is plotted as a time course for each compound at every concentration. This assay was adapted from Alonso-Padilla et al. and Peña et al..
To identify and classify the different compounds, the number of amastigotes per cell (AM/CELL) raw data obtained in rate of kill assay are normalised using the average of C1 (infected cells) at time 4 hours as 0% effect and the average of C2 (non-infected cells) for each time as 100% effect, according to the following Eq 1: %CIDALRESPONSE=100*[Avg_C14h-RawData]/[Avg_C14h-Avg_C2] (1)
(§2) • ME (Maximum Effect) is the maximum percentage of parasite burden reduction reached by any compound concentration. Compounds that decrease the initial parasite load will show a positive value of ME, whereas compounds that allow the progression of infection will render a negative ME value. […] It is calculated for the MCC50 (t50%_MCC50) and for the maximum concentration (t50%_Cmax). […] The value of this parameter is not either interpolated or extrapolated, and it refers to the first experimental time-course point at which a 50% of effect is reached or exceeded. • tlag defines the time elapsed for one particular concentration to reduce parasite burden between two consecutive points at any moment of the time course. It is calculated for the MCC50 (tlag_MCC50) and for the maximum concentration (tlag_Cmax). The value of this parameter is not either interpolated or extrapolated, and it refers to the first experimental time-course point of a positive slope in the normalised plot (i.e. %Cidal_Response). • Cmin_Tox (Minimal CytoToxic Concentration) is the lowest compound concentration that is reducing the number of host mammalian cells below 50% of initial cell density. Cytotoxic compounds may mislead a bona fide antiparasitic action.

TcCYP51 = conditions: formerly reported; cited from earlier work
[3] = test system: H9c2 (rat cardiomyocytes); assay: RoK assay, number of host cells nuclei (drug-related cytotoxicity, H9c2 output, Cmin_Tox); conditions: H9c2 host cells
Experimental: as §1, with “Trypomastigotes, in supplemented DMEM, were added to H9c2 cultures in a multiplicity of infection (MOI) of 8 and incubated for 18 h.” left out
as §2, with “action. Therefore, this descriptor is used to flag this kind of compounds and warn about the genuine meaning of the rest of descriptors.” for “action.”

[4] = test system: T. cruzi intracellular amastigotes in H9c2 cells; assay: RoK combination assay with BNZ; format: cell-based, Trypanosoma cruzi
Experimental: The assay was performed following the same experimental procedure mentioned above in the RoK assay. The infected H9c2 cells were treated with final 10 and 50 μM concentrations of BNZ and DMSO before being dispensed into the plates containing the compounds. For the combination with 50 μM BNZ, two plates were incubated for 4 and 24 hours respectively before being fixed. For the combinations with 10 μM BNZ and with DMSO, four plates for each condition were incubated for 4, 24, 48 and 72 hours before being fixed.

| Structure (SMILES) | Trypomastigotes pIC50 48 hours [1] | Trypomastigotes pIC50 72 hours [1] | 72 pIC50 (trypomastigotes, raw data of Fig 1D) ([1]; 72 hours, plotted values, censored values given without sign) | 48 pIC50 ([1]; trypomastigote assay, 48 h, figure 1A) | 72 pIC50 ([1]; trypomastigote assay, figure 1A) | 72 pIC50 ([1]; trypomastigote assay, figure 1B) | ME 24h (maximum effect at 24 hours, intracellular amastigotes) [2] | CYP51 pIC50 (TcCYP51) | Cmin_Tox [3] | AM/CELL ([4]; combo BNDZ 10 with unnamed compound at Concentration 16.6667, time 4) | AM/CELL ([4]; combo BNDZ 10 with unnamed compound at Concentration 16.6667, time 24) | AM/CELL ([4]; combo BNDZ 10 with unnamed compound at Concentration 16.6667, time 48) | AM/CELL ([4]; combo BNDZ 10 with unnamed compound at Concentration 16.6667, time 72) | AM/CELL ([4]; combo BNDZ 10 with unnamed compound at Concentration 50, time 4) | AM/CELL ([4]; combo BNDZ 10 with unnamed compound at Concentration 50, time 24) | AM/CELL ([4]; combo BNDZ 10 with unnamed compound at Concentration 50, time 48) | AM/CELL ([4]; combo BNDZ 10 with unnamed compound at Concentration 50, time 72) |
| --- | --- | --- | --- | --- | --- | --- | --- | --- | --- | --- | --- | --- | --- | --- | --- | --- | --- |
| CNc1cc(Cn2c(C(=O)c3cc(C)cc(Cl)c3)c(C(C)C)c(=O)[nH]c2=O)ccn1 [TCMDC-143637] | < 4.3 | < 4.3 | < 4.3 | < 4.3 | < 4.3 | < 4.3 | 23.6593% | 7.5 | – | – | – | – | – | – | – | – | – |
| Cc1ccc(S(=O)(=O)Nc2ccc(CN3CCN(C(=O)c4cccc(C#N)c4)CC3)cc2)cc1.O=C(O)C(F)(F)F [TCMDC-143497] | < 4.3 | 4.9 | – | – | – | – | – | < 4 | >50 µM | – | – | – | – | – | – | – | – |
| O=C(Cn1ccnc1[N+](=O)[O-])NCc1ccccc1 [BNDZ 10] | – | – | – | – | – | – | – | – | – | 2.035 and 2.023 | 1.123 and 1.3558 | 0.3934 and 0.4677 | 0.5411 and 0.6092 | 1.931 and 1.78 | 0.8406 and 1.092 | 0.412 and 0.3872 | 0.6445 and 0.5238 |
